Results on 48 compounds are retold here after the Deep4Chem optical property database.

SMILES strings stand for the structures.

This series in a line: solvent given as SMILES.

In the case of `CC(C)(C)c1ccc(-c2c3cccc4c(-c5ccccc5)cc5c(-c6ccc(C(C)(C)C)cc6)c6cccc7c(-c8ccccc8)cc2c(c76)c5c43)cc1`, the emission maximum (in ClCCl) amounted to 465 nm.

Consider `O=C(O)c1ccccc1Nc1cccc(C(F)(F)F)c1`, for which the emission maximum reads like this: (in C1CCCCC1) 406 nm; (in C1CCOC1) 408 nm; (in C1COCCO1) 410 nm; (in CC#N) 426 nm; (in CCOC(C)=O) 410 nm; (in CN(C)C=O) 425 nm. For the same compound, the emission maximum is, setting by setting: (in CO) 428 nm; (in ClC(Cl)Cl) 426 nm.

With `COc1c2ccccc2c(OC)c2c1c1ccc(F)cc1n2C`, the emission maximum (in C1CCCCC1) is 404 nm, the emission maximum (in CC#N) is 413 nm, the emission maximum (in CO) amounted to 410 nm and the emission maximum (in ClCCl) is reported as 411 nm.

For `COc1ccc(-n2c(C)ccc2C)cc1`, the emission maximum reads like this: (in CC#N) 421 nm; (in CCCCCC) 336 nm.

Regarding `Cc1nc2c(ccc3c2sc(/C=C/c2cc4c5c(c2)CCCN5CCC4)[n+]3C)s1`, the emission maximum (in CO) was determined as 622 nm and the emission maximum (in ClC(Cl)Cl) was determined as 623 nm.

Consider `O=C1OC(=O)c2cc(Oc3ccccc3)c3c4ccc5c6c(cc(Oc7ccccc7)c(c7ccc1c2c73)c64)C(=O)OC5=O`, for which the emission maximum is reported as 560 nm (in C1CCOC1), 595 nm (in CN1CCCC1=O) and 572 nm (in CN(C)C=O).

`COCCC1=Cc2nc1ccc1[nH]c(cc1CCOC)c1nc(c(OC)cc3[nH]c2cc3CCOC)C(CCOC)=C1` showed an emission maximum (in Cc1ccccc1) of 690 nm.

With `CCc1c(C)c2n(c1C)[B-](F)(F)[N+]1=C(NCc3ccc(OC)cc3)C(SC#N)=CC1=C2C`, the emission maximum runs as follows: (in CC#N) 582 nm; (in CCCCCC) 589 nm; (in CCOC(C)=O) 586 nm; (in CO) 583 nm; (in ClCCl) 586 nm.

`Cc1ccc(-c2ccc(/C=C/c3ccc(Cl)cc3)cn2)nc1` gave an emission maximum (in CC#N) of 392 nm.

In turn, `[NH3+]C(Cc1c[nH]c2ccccc12)C(=O)[O-]` (stereo not drawn) displayed an emission maximum (in O) of 350 nm.

Take `C[Si](C)(C)c1cccc2ccccc12`: the emission maximum (in C1CCCCC1) worked out at 328 nm.

For `C[Si](C)(C)[Si](C)(C)c1cccc2cc3ccccc3cc12`, the emission maximum reads like this: (in C1CCCCC1) 410 nm; (in CC#N) 411 nm.

`c1cc2ccc3cccc4c(-c5cc(-c6nccs6)nc(-c6nccs6)c5)cc(c1)c2c34` registered an emission maximum (in CC#N) of 458 nm, an emission maximum (in CCCCCC) of 392 nm, an emission maximum (in CO) of 483 nm and an emission maximum (in ClC(Cl)Cl) of 439 nm.

As for `Cc1ccc(O)c(-c2[nH]c(=O)n3c2-c2ccccc2C3=O)c1`, the emission maximum by setting is: (in CC#N) 480 nm; (in CO) 500 nm; (in ClCCl) 475 nm.

Compound `CCCCCCCCCCCCCCCCCCOc1ccc(C#Cc2cc3nc4c(OCCCCCCCCCCCC)cc5c6cc(OCCCCCCCCCCCC)c(OCCCCCCCCCCCC)cc6c6cc(OCCCCCCCCCCCC)c(OCCCCCCCCCCCC)cc6c5c4nc3cc2C#Cc2ccc(OCCCCCCCCCCCCCCCCCC)cc2)cc1` yielded an emission maximum (in ClC(Cl)Cl) of 660 nm.

Where the note is “in CO”, `COc1ccccc1-c1nc(-c2ccccc2)c(-c2ccccc2)[nH]1` came in with an emission maximum of 375 nm.

As for `Cc1cc(-c2ccccc2)cc(C)[o+]1`, the emission maximum was found to be 462 nm (in CC#N) and 434 nm (in ClCCl).

For the compound `COC(=O)c1ccc(/C=C2\C=C(c3ccc(OC)c(OC)c3)OC2=O)cc1`, the emission maximum (in C1COCCO1) is recorded as 522 nm.

As to `CCN(CC)c1ccc2cc(-c3csc(N)c3C#N)c(=O)oc2c1`, the emission maximum is, setting by setting: (in C1CCOC1) 458 nm; (in CO) 514 nm; (in CS(C)=O) 482 nm; (in Cc1ccccc1) 447 nm; (in ClCCl) 464 nm.

Regarding `O=C1Nc2ccccc2/C1=C/C(=O)c1ccc(O)cc1`, the emission maximum runs as follows: (in C1CCCCC1) 384 nm; (in C1COCCO1) 399 nm; (in CC#N) 401 nm; (in CC(C)(C)O) 406 nm; (in CC(C)O) 407 nm; (in CCCCCC) 382 nm. In addition, the emission maximum reads like this: (in CCCCO) 407 nm; (in CCOC(C)=O) 398 nm; (in CN(C)C=O) 401 nm; (in CO) 408 nm; (in ClCCl) 400 nm; (in O) 424 nm.

In the case of `CC1(C)c2ccccc2N2c3ccccc3C3(c4cc(C#N)ccc4-c4ccc(C#N)cc43)c3cccc1c32`, the emission maximum (in Cc1ccccc1) worked out at 485.37 nm.

As for `Cc1ccc(C2=C3C=C(I)C=[N+]3[B-](F)(F)n3cc(I)cc32)cc1`, the emission maximum came out at 567.5 nm (in C1CCCCC1); 573 nm (in CC#N); 573 nm (in CCO); 569.5 nm (in CCOC(C)=O); 572 nm (in CO); 567.5 nm (in OCC(F)(F)F).

For the compound `CCOC(=O)c1ccc(NC(=O)COc2cc3c4c([nH]c3c(C)c2C)C(=O)CCC4)cc1`, the emission maximum runs as follows: (in C1COCCO1) 408.59 nm; (in CC#N) 422.39 nm; (in CCO) 464.31 nm; (in CS(C)=O) 426.09 nm; (in O) 468.86 nm; (in c1ccccc1) 411.45 nm.

As for `COC(=O)/C=C/c1sc(-c2ccc(N(C)C)s2)c(-c2cn(C)c3ccccc23)c1O`, the emission maximum (in CC#N) is recorded as 663 nm.

The compound `N[C@@H](Cn1nnc2cc(-c3ccc(-c4ccsc4)cc3)ccc21)C(=O)O` returned an emission maximum (in CO) of 384 nm.

On to `CC1=N/C(=C\c2cc(C#N)cc(N(C)C)c2)C(=O)N1C`, for which the emission maximum is, setting by setting: (in C1CCOC1) 544 nm; (in CC#N) 595 nm; (in CCCCCC) 475 nm.

With `F[B-]1(F)OC(c2ccc3ccccc3c2)=CC(c2ccc3ccccc3c2)=[O+]1`, the emission maximum is, setting by setting: (in CC#N) 510 nm; (in ClC(Cl)(Cl)Cl) 428 nm.

In the case of `CC(C)c1cccc(C(C)C)c1N1C(=O)c2cc(Oc3ccc(C(C)(C)C)cc3)c3c4c(Oc5ccc(C(C)(C)C)cc5)cc5c6c(cc(Oc7ccc(C(C)(C)C)cc7)c(c7c(Oc8ccc(C(C)(C)C)cc8)cc(c2c37)C1=O)c64)C(=O)N(c1c(C(C)C)cccc1C(C)C)C5=O`, under “in Cc1ccccc1”, the emission maximum came to 611 nm.

Turning to `COc1ccc2c(c1)C(=O)c1cc(OC)cc(OC)c1-2`, the emission maximum reads like this: (in C1CCCCC1) 570 nm; (in CC#N) 628 nm.

Under “in ClCCl”, `C(=C\c1ncccn1)/c1ccc(-c2ccc(N(c3ccccc3)c3ccccc3)cc2)cc1` gave an emission maximum of 530 nm.

As to `Cn1c(-c2ccc(-c3nc(-c4ccccc4)c(-c4ccccc4)n3C)s2)nc(-c2ccccc2)c1-c1ccccc1`, the emission maximum (in CC#N) worked out at 470 nm.

In turn, `CC1=C(C)c2cccc3c2c(cc2nc4ccccc4nc23)O1` registered an emission maximum (in ClCCl) of 563 nm.

`CC1=[N+]2C(=C(c3cccs3)c3ccc(C)n3[B-]2(F)F)C=C1c1cc2n(c1)[B-](F)(F)[N+]1=CC=CC1=C2c1c(C)cc(C)cc1C`: the emission maximum by setting is: (in C1CCCCC1) 650 nm; (in CCOC(C)=O) 670 nm.

Turning to `CN(C)c1ccc(C#Cc2cc(C#Cc3ccc(N(C)C)cc3)c3ccc4c(C#Cc5ccc(N(C)C)cc5)cc(C#Cc5ccc(N(C)C)cc5)c5ccc2c3c54)cc1`, the emission maximum (in ClCCl) came to 562 nm.

With `CC(=O)c1ccc2ccc3cccc4ccc1c2c34`, the emission maximum (in C1CCOC1) is recorded as 387 nm; the emission maximum (in CC#N) came out at 390 nm; the emission maximum (in CCCCCC) stood at 387 nm; the emission maximum (in CCO) stood at 436 nm; the emission maximum (in CN(C)C=O) was 392 nm; the emission maximum (in CO) was 443 nm. Also, the emission maximum by setting is: (in Cc1ccccc1) 392 nm; (in ClCCl) 396 nm.

For the compound `O=C1C=CC2=Cc3ccccc3B(O)N12`, the emission maximum is, setting by setting: (in CC#N) 412 nm; (in CO) 416 nm; (in CS(C)=O) 430 nm; (in ClC(Cl)Cl) 420 nm.

`c1ccc(N(c2ccccc2)c2ccc3ccc4c(N(c5ccccc5)c5ccccc5)ccc5ccc2c3c54)cc1`: the emission maximum was found to be 458 nm (in Cc1ccccc1) and 472 nm (in ClCCl).

For the compound `Cc1cc(C)c2c(c1)c1cc(C)cc(C)c1n2-c1ccc2c(c1)Oc1ccccc1B2c1c(C(C)C)cc(C(C)C)cc1C(C)C`, the emission maximum (in Cc1ccccc1) is on record as 443 nm.

As for `CC1=CC(c2ccc(N(C)C)cc2)=[N+]2C1=Nc1c(C)cc(-c3ccc(N(C)C)cc3)n1[B-]2(F)F`, the emission maximum was 791 nm (in C1CCOC1), 822 nm (in CS(C)=O) and 779 nm (in Cc1ccccc1).

Compound `COc1cc2oc(=O)c3c4ccc(C(=O)c5ccccc5)cc4c4ccc5cccc6c(c1)c2c3c4c56` returned an emission maximum (in C1CCOC1) of 443 nm.

On to `c1ccc([B-]2(c3ccccc3)Oc3ccc4ccccc4c3-c3c4ccccc4cc[n+]32)cc1`, for which, where the note is “in Cc1ccccc1”, the emission maximum amounted to 522 nm.

As for `CC1=CC(C)=[N+]2C1=C(c1ccc(Br)cc1)c1c(C)cc(/C=C/c3ccc[nH]3)n1[B-]2(F)F`, the emission maximum (in ClCCl) stood at 613 nm.

Where the note is “in O”, `O=C(O)c1cc(O)c(O)c(O)c1` registered an emission maximum of 341 nm.

For the compound `CCn1c2ccc(/C=C(\C#N)c3ccccc3)cc2c2cc(/C=C(\C#N)c3ccccc3)ccc21`, the emission maximum (in ClCCl) stood at 412 nm.

Turning to `Cc1cc(O)c(-c2[nH]c(=O)n3c2-c2ccccc2C3=O)cc1Cl`, the emission maximum (in CC#N) is recorded as 479 nm, the emission maximum (in CO) amounted to 496 nm and the emission maximum (in ClCCl) is 478 nm.

Take `Clc1ccc(/C=C(\c2ccccc2)c2nc3ccccc3s2)cc1`: the emission maximum (in C1CCCCC1) is on record as 420 nm and the emission maximum (in CO) was 430 nm.

`COc1ccc2c(c1)sc1[n+]2[B-](F)(F)OC(c2ccc(N(C)C)cc2)=N1`: the emission maximum came to 466 nm (in C1CCOC1); 481 nm (in CC#N); 477 nm (in CC(C)=O); 454 nm (in Cc1ccccc1); 467 nm (in ClCCl).

Turning to `O=c1cc[nH]c(=O)[nH]1`, where the note is “in CC#N”, the emission maximum turned out to be 311 nm.
